Where two headings read alike, the source gives them in different places.

Series [1] in a line: Test B: Cytotoxicity Assay. The series is classed as cell-based. The following applies: human, uninfected MT-4 cells, CellTiter-Glo. How it is done: Test B: Cytotoxicity Assay Compound cytotoxicity and the corresponding CC50 values was determined using the same protocol as described in the antiviral assay (Test A) except that uninfected cells were used.
(In ATP-based viability assays light output follows the ATP content of the culture.)

Series [2] deals with HIV-IIIb. In words: Test A: Antiviral Assay in MT4 Cells. The format is cell-based, HIV-1. The following applies: for inhibition at 0.2 µM: 0.2 μM drug concentration. How it is done: Test A: Antiviral Assay in MT4 Cells
MT-4 cells were next mixed with HIV-IIIb at an m.o.i of 0.003 for 1 hour, after which time 35 μL of virus/cell mixture (2000 cells) was immediately added to each well containing 40 μL of diluted compound. The plates were then incubated at 37° C. for 5 days. After 5 days of incubation, 25 μl of 2× concentrated CellTiter-Glo™ Reagent (catalog #G7571, Promega Biosciences, Inc., Madison, Wis.) was added to each well containing MT-4 cells. Cell lysis was carried out by incubating at room temperature for 10 min and then chemiluminescence was read.

Where [3] appears, read: Human immunodeficiency virus 1, MT4, 120 h, MT-4 cells infected with HIV-IIIb, 5 days, values normalized to 100%, average over time, read-out: % inhibition at 0.2 μM (percent inhibition of virus-induced cell killing).

In general, CC50 refers to the concentration giving 50% cytotoxicity. A lower CC50 goes with greater toxicity to the cells. Broadly, the inhibition is the drop in the measured response relative to a control, in per cent. Regarding `Cn1nc(N)c2cccc(-c3ccc(C#CC4(O)CCOCC4)nc3[C@H](Cc3cc(F)cc(F)c3)NC(=O)Cn3nc(C(F)(F)F)c4c3C(F)(F)[C@@H]3C[C@H]43)c21` [Compound 27, N—((S)-1-(3-(3-amino-1-methyl-1H-indazol-7-yl)-6-((4-hydroxytetrahydro-2H-pyran-4-yl)ethynyl)pyridin-2-yl)-2-(3,5-difluorophenyl)ethyl)-2-((3bS,4aR)-5,5-difluoro-3-(trifluoromethyl)-3b,4,4a,5-tetrahydro-1H-cyclopropa[3,4]cyclopenta[1,2-c]pyrazol-1-yl)acetamide], the midpoint of cytotoxicity in series [1], the CC50 at 5 days, lay at 15.8 µM. Further, the inhibition at 0.2 µM in series [2] (setting [3]) amounted to 92%.

In turn, `Cn1nc(NS(C)(=O)=O)c2cccc(-c3ccc(C#CC4CCOCC4)nc3[C@H](Cc3cc(F)cc(F)c3)NC(=O)Cn3nc(C(F)(F)F)c4c3C(F)(F)[C@@H]3C[C@H]43)c21` [Compound 28B, 2-((3bS,4aR)-5,5-difluoro-3-(trifluoromethyl)-3b,4,4a,5-tetrahydro-1H-cyclopropa[3,4]cyclopenta[1,2-c]pyrazol-1-yl)-N—((S)-2-(3,5-difluorophenyl)-1-(3-(1-methyl-3-(methylsulfonamido)-1H-indazol-7-yl)-6-((tetrahydro-2H-pyran-4-yl)ethynyl)pyridin-2-yl)ethyl)acetamide] yielded a CC50 at 5 days in series [1] of 6.07 µM. The inhibition at 0.2 µM in series [2] (setting [3]) turned out to be 92%.

`Cn1nc(NS(C)(=O)=O)c2cccc(-c3ccc(C#CC4(C)COC4)nc3[C@H](Cc3cc(F)cc(F)c3)NC(=O)Cn3nc(C(F)(F)F)c4c3C(F)(F)[C@@H]3C[C@H]43)c21` [Compound 29, 2-((3bS,4aR)-5,5-difluoro-3-(trifluoromethyl)-3b,4,4a,5-tetrahydro-1H-cyclopropa[3,4]cyclopenta[1,2-c]pyrazol-1-yl)-N—((S)-2-(3,5-difluorophenyl)-1-(3-(1-methyl-3-(methylsulfonamido)-1H-indazol-7-yl)-6-((3-methyloxetan-3-yl)ethynyl)pyridin-2-yl)ethyl)acetamide] returned a CC50 at 5 days in series [1] of 12.4 µM. In addition, the inhibition at 0.2 µM in series [2] (setting [3]) was 100%.

As for `Cn1nc(NS(C)(=O)=O)c2cccc(-c3ccc(C#CC4(O)CCOC4)nc3[C@H](Cc3cc(F)cc(F)c3)NC(=O)Cn3nc(C(F)(F)F)c4c3C(F)(F)[C@@H]3C[C@H]43)c21` (stereo partly drawn) [Compound 30B, 2-((3bS,4aR)-5,5-difluoro-3-(trifluoromethyl)-3b,4,4a,5-tetrahydro-1H-cyclopropa[3,4]cyclopenta[1,2-c]pyrazol-1-yl)-N-((1S)-2-(3,5-difluorophenyl)-1-(6-((3-hydroxytetrahydrofuran-3-yl)ethynyl)-3-(1-methyl-3-(methylsulfonamido)-1H-indazol-7-yl)pyridin-2-yl)ethyl)acetamide], in series [1], the CC50 at 5 days was 19.5 µM. In series [2] (setting [3]), the inhibition at 0.2 µM came out at 100%.

Regarding `CN1CCC(O)(C#Cc2ccc(-c3cccc4c(NS(C)(=O)=O)nn(C)c34)c([C@H](Cc3cc(F)cc(F)c3)NC(=O)Cn3nc(C(F)(F)F)c4c3C(F)(F)[C@@H]3C[C@H]43)n2)CC1` [Compound 31, 2-((3bS,4aR)-5,5-difluoro-3-(trifluoromethyl)-3b,4,4a,5-tetrahydro-1H-cyclopropa[3,4]cyclopenta[1,2-c]pyrazol-1-yl)-N—((S)-2-(3,5-difluorophenyl)-1-(6-((4-hydroxy-1-methylpiperidin-4-yl)ethynyl)-3-(1-methyl-3-(methylsulfonamido)-1H-indazol-7-yl)pyridin-2-yl)ethyl)acetamide], in series [1], the CC50 at 5 days amounted to 20.2 µM. Besides, the inhibition at 0.2 µM in series [2] (setting [3]) worked out at 93%.

The molecule `CN1CCN(CC#Cc2ccc(-c3cccc4c(NS(C)(=O)=O)nn(C)c34)c([C@H](Cc3cc(F)cc(F)c3)NC(=O)Cn3nc(C(F)(F)F)c4c3C(F)(F)[C@@H]3C[C@H]43)n2)CC1` [Compound 32, 2-((3bS,4aR)-5,5-difluoro-3-(trifluoromethyl)-3b,4,4a,5-tetrahydro-1H-cyclopropa[3,4]cyclopenta[1,2-c]pyrazol-1-yl)-N—((S)-2-(3,5-difluorophenyl)-1-(3-(1-methyl-3-(methylsulfonamido)-1H-indazol-7-yl)-6-(3-(4-methylpiperazin-1-yl)prop-1-yn-1-yl)pyridin-2-yl)ethyl)acetamide] showed a half-maximal cytotoxic concentration (CC50) at 5 days in series [1] of 8.53 µM. The inhibition at 0.2 µM in series [2] (setting [3]) came to 95%.

In turn, `Cn1cncc1C#Cc1ccc(-c2cccc3c(NS(C)(=O)=O)nn(C)c23)c([C@H](Cc2cc(F)cc(F)c2)NC(=O)Cn2nc(C(F)(F)F)c3c2C(F)(F)[C@@H]2C[C@H]32)n1` [Compound 33, 2-((3bS,4aR)-5,5-difluoro-3-(trifluoromethyl)-3b,4,4a,5-tetrahydro-1H-cyclopropa[3,4]cyclopenta[1,2-c]pyrazol-1-yl)-N—((S)-2-(3,5-difluorophenyl)-1-(6-((1-methyl-1H-imidazol-5-yl)ethynyl)-3-(1-methyl-3-(methylsulfonamido)-1H-indazol-7-yl)pyridin-2-yl)ethyl)acetamide] yielded a CC50 at 5 days in series [1] of 12.5 µM. Besides, in series [2] (setting [3]), the inhibition at 0.2 µM is 93%.

In series [1], `Cn1nc(NS(C)(=O)=O)c2cccc(-c3ccc(C#CCN4CCOCC4)nc3[C@H](Cc3cc(F)cc(F)c3)NC(=O)Cn3nc(C(F)(F)F)c4c3C(F)(F)[C@@H]3C[C@H]43)c21` [Compound 34, 2-((3bS,4aR)-5,5-difluoro-3-(trifluoromethyl)-3b,4,4a,5-tetrahydro-1H-cyclopropa[3,4]cyclopenta[1,2-c]pyrazol-1-yl)-N—((S)-2-(3,5-difluorophenyl)-1-(3-(1-methyl-3-(methylsulfonamido)-1H-indazol-7-yl)-6-(3-morpholinoprop-1-yn-1-yl)pyridin-2-yl)ethyl)acetamide] showed a CC50 at 5 days of 10.2 µM. Further, the inhibition at 0.2 µM in series [2] (setting [3]) came out at 87%.

`NC(=O)c1cc(-c2ccc(C#CC3(O)CCOCC3)nc2[C@H](Cc2cc(F)cc(F)c2)NC(=O)Cn2nc(C(F)(F)F)c3c2C(F)(F)[C@@H]2C[C@H]32)ccc1F` [Compound 35, 5-(2-((S)-1-(2-((3bS,4aR)-5,5-difluoro-3-(trifluoromethyl)-3b,4,4a,5-tetrahydro-1H-cyclopropa[3,4]cyclopenta[1,2-c]pyrazol-1-yl)acetamido)-2-(3,5-difluorophenyl)ethyl)-6-((4-hydroxytetrahydro-2H-pyran-4-yl)ethynyl)pyridin-3-yl)-2-fluorobenzamide] showed a CC50 at 5 days in series [1] of 10.1 µM. Besides, the inhibition at 0.2 µM in series [2] (Human immunodeficiency virus 1, IIIB, MT4, comparison with previously published compounds, read-out: Response at 0.2 μM (percent inhibition of virus-induced cell killing)) was 86%; in series [2] (setting [3]) it was 86%. Besides, in series [2] (Human immunodeficiency virus 1, IIIB, MT4, 2 μM drug concentration, comparison with previously published compounds, read-out: Response at 2 μM (percent inhibition of virus-induced cell killing)), the inhibition at 2 µM stood at 86%.

In series [1], `Cn1nc(NS(C)(=O)=O)c2cccc(-c3ccc(C#CC4CCCCN4)nc3[C@H](Cc3cc(F)cc(F)c3)NC(=O)Cn3nc(C(F)(F)F)c4c3C(F)(F)[C@@H]3C[C@H]43)c21` (stereo partly drawn) [Compound 36B, 2-((3bS,4aR)-5,5-difluoro-3-(trifluoromethyl)-3b,4,4a,5-tetrahydro-1H-cyclopropa[3,4]cyclopenta[1,2-c]pyrazol-1-yl)-N-((1S)-2-(3,5-difluorophenyl)-1-(3-(1-methyl-3-(methylsulfonamido)-1H-indazol-7-yl)-6-(piperidin-2-ylethynyl)pyridin-2-yl)ethyl)acetamide] displayed a CC50 at 5 days of 6.57 µM. Moreover, the inhibition at 0.2 µM in series [2] (setting [3]) was found to be 83%.

For `Cn1nc(NS(C)(=O)=O)c2cccc(-c3ccc(C#CC4(O)CCCC4)nc3[C@H](Cc3cc(F)cc(F)c3)NC(=O)Cn3nc(C(F)(F)F)c4c3C(F)(F)[C@@H]3C[C@H]43)c21` [Compound 37, 2-((3bS,4aR)-5,5-difluoro-3-(trifluoromethyl)-3b,4,4a,5-tetrahydro-1H-cyclopropa[3,4]cyclopenta[1,2-c]pyrazol-1-yl)-N—((S)-2-(3,5-difluorophenyl)-1-(6-((1-hydroxycyclopentyl)ethynyl)-3-(1-methyl-3-(methylsulfonamido)-1H-indazol-7-yl)pyridin-2-yl)ethyl)acetamide], it took 8.71 µM to reach half-maximal cytotoxicity in series [1] (CC50 at 5 days). For the same molecule, the inhibition at 0.2 µM in series [2] (setting [3]) is 80%.

In series [1], `Cn1nc(NS(C)(=O)=O)c2c(Cl)ccc(-c3ccc(C#CC4(O)COC4)nc3[C@H](Cc3cc(F)cc(F)c3)NC(=O)Cn3nc(C(F)(F)F)c4c3C(F)(F)[C@@H]3C[C@H]43)c21` [Compound 38, N—((S)-1-(3-(4-chloro-1-methyl-3-(methylsulfonamido)-1H-indazol-7-yl)-6-((3-hydroxyoxetan-3-yl)ethynyl)pyridin-2-yl)-2-(3,5-difluorophenyl)ethyl)-2-((3bS,4aR)-5,5-difluoro-3-(trifluoromethyl)-3b,4,4a,5-tetrahydro-1H-cyclopropa[3,4]cyclopenta[1,2-c]pyrazol-1-yl)acetamide] yielded a CC50 at 5 days of 14.3 µM. Also, the inhibition at 0.2 µM in series [2] (setting [3]) was 97%.

`Cn1nc(NS(C)(=O)=O)c2c(Cl)ccc(-c3ccc(C#CC4(O)CCOCC4)nc3[C@H](Cc3cc(F)cc(F)c3)NC(=O)Cn3nc(C(F)(F)F)c4c3C(F)(F)[C@@H]3C[C@H]43)c21` [Compound 39, N—((S)-1-(3-(4-chloro-1-methyl-3-(methylsulfonamido)-1H-indazol-7-yl)-6-((4-hydroxytetrahydro-2H-pyran-4-yl)ethynyl)pyridin-2-yl)-2-(3,5-difluorophenyl)ethyl)-2-((3bS,4aR)-5,5-difluoro-3-(trifluoromethyl)-3b,4,4a,5-tetrahydro-1H-cyclopropa[3,4]cyclopenta[1,2-c]pyrazol-1-yl)acetamide] displayed a CC50 at 5 days in series [1] of 10.7 µM. For the same molecule, in series [2] (setting [3]), the inhibition at 0.2 µM worked out at 95%.

Values taken from US9873680B2 (Gilead Sciences, Inc., priority 2014, dated 2018).
